Values of other authors as cited in US20040047892A1, “Filler composition for soft tissue augmentation and reconstructive surgery” (priority 2003, published 2004).

## collagen
Depending on the patient and site of injection
  time until the filler disappears: within a few months
In vivo
  share of the population allergic: about 3%
